This passage reports melting point results from a melting point compilation (Tetko et al.; mined from patent text by program, amines drawn as free bases though some values may be those of a salt).

Where only a bound is given, the exact number is not on record here.

`CCCn1nc2c(N)nc3ncccc3c2c1CC(C)(C)O` had a melting point of 252 to 255 °C.

Consider `O=[N+]([O-])c1cccc(C(Cl)=NN=C(Cl)c2ccc(C(F)(F)F)cc2)c1`, for which the melting point was 78 to 80 °C. As for `CC(NC1=C(N=Nc2ccccc2)C(=O)SC1)c1ccccc1` (centres undefined), the figure is 129 to 130 °C; as for `CCOC(=O)Cc1cc2c(N=C3SC[C@@H]4Cc5ccccc5CN34)cccc2cn1`, 112 °C. In the case of `COc1ccc([C@@H]2Sc3cc(Cl)ccc3N(CCN(C)C)C(=O)[C@@H]2OCC(=O)OC(C)(C)C)cc1`, the melting point fell in the range of 83 to 84 °C. With `CC(=CC(=O)O)c1cccc(-c2cc3c(cc2C)C(C)(C)CCC3(C)C)c1`, the melting point fell in the range of 89 to 90 °C. Turning to `Cn1c(=O)[nH]c2cccc(I)c2c1=O`, the melting point was more than 300 °C. `CCCOc1ccccc1-c1nc2nc(-c3ccccc3)ncc2c(=O)[nH]1` gave a melting point of 203 to 204 °C.

For the compound `N#Cc1ccc(O)c(C2(C(=O)O)CCCC2)c1`, the melting point lay within 153 to 154 °C.

Turning to `CNC(=O)OC1Oc2ccc(OS(C)(=O)=O)cc2C1(C)C` (centres undefined), the melting point is 126 to 127 °C.

In turn, `C=CCOc1ccc(OCCBr)cc1` gave a melting point of 27 to 28 °C.

With `Nc1nc2ccccc2c2c1ncn2Cc1cc(-c2ccc(F)cc2)no1`, the melting point fell in the range of 259 to 260 °C. The compound `CCOC(=O)C(=CNc1sc(Cl)cc1C(=O)OC)C(=O)OCC` yielded a melting point of 89.5 to 90.5 °C. As for `CC1(C)C=C(c2ccccn2)c2cc(C(=O)O)ccc2O1`, the figure is 238 to 240 °C; as for `CN1CCN(C(=O)N2CCN(C(=O)OC(C)(C)C)CC2)CC1`, 130 °C; as for `CC(C)=CC(=O)N1CC(c2ccccc2)c2ccccc21` (centres undefined), 97 to 98 °C. With `CCc1nc2ccccn2c1S(N)(=O)=S` (centres undefined), the melting point is 169 to 171 °C.

Regarding `Cn1nc(-c2ccc(Cl)cc2)n(C)c1=S`, the melting point lay in the range of 113 to 115 °C.

Consider `C[Si](C)(C1C=Cc2c(-c3ccccc3)cccc21)C1C=Cc2c(-c3ccccc3)cccc21` (centres undefined), for which the melting point was in the range of 109 to 110 °C. In the case of `CC(=O)Nc1c(OC(C)=O)cc(C)c(C)c1[N+](=O)[O-]`, the melting point was 209 to 211 °C. As for `Nc1ccc(Oc2ccccc2Oc2ccc(N)c(O)c2)cc1O`, the figure is more than 180 °C. As for `CCNC(=NS(=O)(=O)c1ccc(Cl)cc1)N1CC(c2ccccc2)C(c2ccc(Cl)cc2)=N1` (single isomer, unassigned; (-)), the figure is 172 to 175 °C. As for `c1ccc(CSc2cnccn2)cc1`, the figure is 65 to 67 °C; as for `CC(/C=C/c1cscc1-c1ccc2c(c1)C(C)(C)CCC2(C)C)=C\C(=O)O`, 192 to 193 °C. `CCc1cn(C(C)(C)C(=O)N(C)C)nc1-c1ccccc1` came in with a melting point of 108 to 111 °C. The same measure for `CC1(C)C(=O)N(c2ccc(C#N)c(C(F)(F)F)c2)C(=O)N1CC=CCN1C(=O)N(c2ccc(C#N)c(C(F)(F)F)c2)C(=O)C1(C)C`: 188 to 190 °C; for `CCOC(=O)c1ccc2nc3ccsc3c(=O)n2c1`: 188 to 190 °C.

`Nc1ccc2c(c1)C(=O)N(c1ccc(C(=O)O)cc1)C2=O` showed a melting point of 270 to 271 °C.

As to `CC(C)N1N=C(c2ccc3c(c2)CCN(C2CCC2)CC3)CCC1=O`, the melting point is 140 to 141 °C. In the case of `O=C(CCCCNC(=O)c1cn2c3c(cccc13)CCC2)NOCc1ccccc1`, the melting point lay in the range of 154 to 155 °C. For the compound `Cc1sc2ncc(C(O)CCCc3ccccc3)n2c1C` (centres undefined), the melting point lay within 167 to 169 °C. Compound `Oc1c2c(nc3c(-c4cc(-c5ccccc5)cs4)cnn13)CCCC2` gave a melting point of 271 to 272 °C. The compound `Cc1ccc(C(=O)n2nc(Nc3cccc(OCC#N)c3)nc2N)cc1` gave a melting point of 236 to 241 °C.

On to `Cc1ccc(-c2cc(C)cn2-c2ccc(S(N)(=O)=O)cc2)cc1`, for which the melting point fell in the range of 175 to 176 °C.

On to `COc1cc(COc2cc(C(=O)O)n(-c3ccccc3)n2)ccc1OCc1nc(-c2ccccc2)oc1C`, for which the melting point lay within 192 to 193 °C.

`CCCCCCCCCCCCCCCc1ccc(CO)c(O)c1` registered a melting point of 94 to 95 °C. The same measure for `N#Cc1ccccc1-c1ccc2cc(CBr)ccc2c1`: 171 to 172 °C; for `CCC(=O)c1cc(C)nc2c1c(C)nn2-c1c(C)cc(C)cc1C`: 117 to 118 °C; for `COCOc1cc2c(cc1-c1cc(-c3ccc(C(=O)O)cc3)ccc1-c1ccccc1)C(C)(C)CCC2(C)C`: 90 to 94 °C.

Compound `O=C(O)C(=O)CC(=O)c1cccn1Cc1cccc(Br)c1` returned a melting point of 164 to 166 °C.

Take `Cc1ccc(C(=O)[C@@H]2[C@@H](C)CCCC2(C)C)cc1Cl`: the melting point lay within 59 to 60 °C. `Fc1cccc([C@@H]2COCC(=S)N2)c1` had a melting point of 124 to 125 °C. For `CC(C)(C)C1=C(CO)N=NC1=O`, the melting point lay in the range of 169 to 172 °C. For `Cn1ncnc1COc1nc2c(cc1-c1cccc(F)c1)nnn2-c1c(F)cccc1F`, the melting point fell in the range of 137 to 140 °C. `O=C(Nc1ccc(C(F)(F)F)cc1Cl)[C@H]1[C@H](c2ccccc2)C12CCCC2` (relative stereo) showed a melting point of 131 to 133 °C.

Consider `O=C(C=NNc1cc(Oc2ncccn2)c(Cl)cc1F)C(F)(F)F`, for which the melting point lay within 188 to 190 °C.

Turning to `O=C(O)CCn1cnc2c(Cl)ncnc21`, the melting point lay within 163 to 165 °C. The compound `CC(C)c1nc(CCOCc2ccccc2)n(Cc2cccc([N+](=O)[O-])c2)c1Sc1cc(Cl)cc(Cl)c1` registered a melting point of 119 to 122 °C.

Turning to `CN(Cc1ccccc1)CC1CCSc2[nH]c3ccccc3c21` (centres undefined), the melting point was in the range of 91 to 93 °C. `CCCCCCCCCCCCCCCCCC(=O)NCCS` showed a melting point of 63 to 65 °C. `CCCCc1nc2c(C(N)=O)cccc2n1Cc1ccc(-c2ccccc2-c2nnn[nH]2)cc1`: the melting point lay in the range of 235 to 236 °C. Consider `COc1cc2nc(N3CCc4cc(OCc5ccccc5)c(OC)cc4C3)cc(N)c2cc1OC`, for which the melting point lay within 181 to 182 °C. As for `C[C@H](O)Cc1ncc[nH]1`, the figure is 119 to 121 °C. The same measure for `NC(=S)NN=C(CCCCl)c1ccc(Cl)cc1`: 125 to 126 °C; for `N#Cc1cc(C(=O)NNC(=O)c2occc2-c2ccccc2-c2ccccc2)ccc1O`: 159 to 162 °C; for `O=C(CN1CCN(c2ccc([N+](=O)[O-])cc2)CC1)Nc1ccc(Nc2ccccc2)cc1`: 212 to 213 °C. As to `O=[N+]([O-])N=C1NCCCN1Cc1ccc(Cl)nc1`, the melting point fell in the range of 113 to 117 °C.

Compound `COc1cc(Oc2csc(C(F)(F)F)c2)nc(-c2ccc(C(F)(F)F)cc2)n1` showed a melting point of 91 to 93 °C. On to `O=c1c(O)cn(-c2cccc(C(F)(F)F)c2)nc1-c1ccnn1-c1ccccc1`, for which the melting point was in the range of 246 to 248 °C. Regarding `CN(CCNc1ccc2c3c(c4c(OCc5ccccc5)ccc(OCc5ccccc5)c4cc13)NN2CCN(CCO)Cc1ccccc1)Cc1ccccc1`, the melting point lay within 147 to 149 °C. The same measure for `CC(Cl)C(=O)c1ccc2c(c1)CC(=O)N2` (centres undefined): 157 to 158 °C; for `CCOC(=O)C1=C(N)NC(C)=C(C(=O)OC)C1c1ccccc1C#N` (centres undefined): 224 °C.

Regarding `O=C(NN1CCNC1=O)c1c[nH]c2cc(O)c(O)cc2c1=O`, the melting point is more than 300 °C. The same measure for `O=C(Nc1nc(-c2ccco2)c(C(=O)c2ccnc(N3CCOCC3)c2)s1)c1ccncc1`: 270 to 273 °C; for `CCOC(=O)c1nc(-c2ccc(F)cc2)c(CCCl)s1`: 81.5 to 82.5 °C.

Turning to `O=c1cc(-c2ccc(O)c(F)c2)oc2ccc(CO)cc12`, the melting point was in the range of 256 to 258 °C. `Cc1ccnc2c1C(=O)CC(c1cc(Cl)sc1Cl)C2` (centres undefined) came in with a melting point of 130 to 131 °C. With `CCOc1ccc(N2CCN(Cc3c[nH]c4ncccc34)CC2)cc1`, the melting point is 179 to 180 °C. For the compound `CCCC1(COC)CCCSc2cc(/C=C/c3ccc(C(=O)O)cc3)ccc21` (centres undefined), the melting point was 169 to 170 °C. Compound `C#Cc1ccnc(-c2cc([N+](=O)[O-])c(-c3ccccc3)cc2N)c1` returned a melting point of 187 to 190 °C.

`c1ccc(CSCC2CCn3c(nc4ccccc43)S2)cc1` (centres undefined) came in with a melting point of 97 to 99 °C. `COc1ccc(N2CCN(c3ccc(N)cc3)CC2)cc1` came in with a melting point of 192 °C. The compound `Cn1c(=O)oc2cc(C(O)CCN3CCOCC3)ccc21` (centres undefined) gave a melting point of 132 °C. On to `Nc1cnc(Br)c(Cl)n1`, for which the melting point fell in the range of 120 to 122 °C.

On to `O=C(CCCN1CCC(c2ccccc2)(c2ccccc2)CC1)c1ccc(F)cc1`, for which the melting point fell in the range of 107 to 108 °C. `CCOC(=O)c1cncc(C#N)c1` came in with a melting point of 58 to 59 °C.

The compound `COC(=O)c1ccc(OC)c2c(I)c(OC)ccc12` registered a melting point of 120 to 122 °C. `CCCOc1cccc(C(=O)O)c1O` had a melting point of 114 to 118 °C.

Take `CCNC(=O)c1cc([N+](=O)[O-])ccc1Oc1cncc(Cl)c1`: the melting point was in the range of 165 to 167 °C. The same measure for `O=C(Nc1cccc(C2CN3CCSC3=N2)c1)c1ccc(Cl)nc1` (centres undefined): 135 to 138 °C; for `Cc1cc(C)n2nc(SCc3ccccc3)c(C#N)c2n1`: 140 °C; for `O=C(Cc1ccc(OCc2ccccc2F)cc1)NC1(C(=O)O)Cc2ccc(-c3ccc(Cl)cc3)cc2C1` (centres undefined): 232 to 233 °C. `CCC1(CC)OC(=O)N(CCC(C)(C)NC[C@H](O)c2ccc(O)c(NS(C)(=O)=O)c2)c2ccccc21` displayed a melting point of 168 °C.

In the case of `Nc1ncnc2c1c(-c1ccc(F)cc1)cn2-c1ccccc1`, the melting point fell in the range of 202 to 203 °C. On to `O=c1ccc(-c2cccc(-n3ccnc3)c2)n[nH]1`, for which the melting point was in the range of 234 to 236 °C. On to `Cc1nc(-c2cc(CCc3ccccc3)no2)sc1C(=O)NCc1ccccc1`, for which the melting point fell in the range of 114 to 115 °C. Compound `OC1CSC(Oc2cnc(-c3ccc(F)nc3)c(F)c2)C(O)C1O` (centres undefined) yielded a melting point of 184 °C. For `CCOC(=O)c1cc2c(-c3ccc(C(F)(F)F)n(C)c3=O)c(F)cc(Cl)c2o1`, the melting point is 118 to 120 °C. `CSc1cc(C)nc(SC)c1NC(=O)CN1CCN(CCO)CC1` displayed a melting point of 119 to 120 °C.
